In one assay the test system is Wnt pathway activity. The assay is described as follows: Wnt-LIGHT cell assay with Wnt3a-conditioned medium. Type of assay: cell-based. The procedure: Wnt-LIGHT cells [see Hyman et al. Proc Natl Acad Sci USA. 2009; 106(33):14132-7], a L-cell-based cell line containing a stably integrated TCF/LCF-dependent firefly luciferase reporter (SuperTopFlash), constitutive Renilla luciferase reporter (pRLSV40, Promega), and geneticin resistance vector (pcDNA3, Invitrogen), were cultured in DMEM (Invitrogen, 11965) containing 10% (v/v) fetal bovine serum (Invitrogen, No. 26140), 400 μg/mL G418 (Invitrogen, 11811) and 1× PenStrep (Gibco, 15140).
All test compounds were dissolved in DMSO at 50 mM, serially diluted by 1:3, 1:4 or 1:5 in a 96-well translucent microplate (Greiner bio-one, 650201) and stored at −20° C. These serial dilutions were added to assay media freshly with final DMSO concentration of 0.2% (v/v).
The Wnt-LIGHT cell assay provides a measure of Wnt pathway activity. Wnt3a-conditioned medium was prepared by culturing Wnt3a-expressing L cells obtained from ATCC in DMEM (Invitrogen, 11965) containing 10% (v/v) fetal bovine serum (Invitrogen, No. 26140) and 1× PenStrep (Gibco, 15140). […] The cells were lysed with passive lysis buffer (50 μL/well), and 10 μL of the obtained lysate were analyzed for firefly and Renilla luciferase activities using Dual-Luciferase Reporter Assay System (Promega, E1960) (50 μL/well of each reagent) on a microplate luminometer (Veritas). Biological triplicates were analyzed for each test compounds.

The next assay has as its system Gli2. The assay is described as follows: Gli2 trafficking assay in NIH 3T3 cells. It is filed as cell-based. As to conditions: ShhN treatment. The procedure: NIH 3T3 cells were also employed in an assay to quantify Gli2 trafficking NIH-3T3 cells were seeded into 24-well plates containing poly-D-lysine-coated 12-mm glass coverslips (65,000 cells/well) and cultured for 24 hrs. […] Each compound or vehicle treatment was conducted in biological triplicates in the presence or absence of 10% (v/v) ShhN-conditioned medium. The cells were subsequently fixed in PBS containing 4% (v/v) paraformaldehyde for 12 min at room temperature, washed three times with PBS, permeabilized in PBS containing 0.5% (v/v) Triton X-100 for 5 min, and washed again twice in PBS. […] After three PBS washes, the coverslips were mounted onto slides using Prolong Gold Antifade Reagent with DAPI (Invitrogen, P36931). The cells were imaged using a Plan Apochromat 63×/1.4-0.6 oil immersion objective on an upright Leica DM4500B compound microscope. Ciliary Gli2 levels were quantified by determining total pixel intensity within a circular region manually placed at the distal end of each cilium and subtracting background fluorescence in an adjacent region of equivalent size. A total of 30 cilia from three coverslips were analyzed to determine the average ciliary Gli2 level for each experimental condition as a measure of Gli2 trafficking.

On to `CCOc1ccc(-[n+]2cc(-c3ccc(Br)cc3)n3c2CCCCC3)cc1` [Compound A-1], for which the “Inhibition of Wnt signaling” value with Wnt pathway activity is “did not inhibit Wnt signaling”. Also, the “IC50, firefly luciferase” value with Wnt pathway activity (Wnt-LIGHT w/ Wnt3a) was “No inhibition”. Further, in the assay on Gli2, the “Effect on ShhN-induced Gli2 accrual at the ciliary distal tip” value is “did not inhibit this process”.

For the origin of these results see US9611276B2, “Imidazo bicyclic iminium compounds as antitumor agents” (THE BOARD OF TRUSTEES OF THE LELAND STANFORD JUNIOR …, priority 2012, dated 2017).
